From the supplement of paper PMC5579334
± gives the standard deviation of the averaged measurements.

Columns and labels:
[1] = tested on: HSC1 (primary human Schwann cells); assay: drug sensitivity score (DSS, CellTox-Green cytotoxicity, 72 h) (DSS (dimensionless)); higher = more cytotoxic; extreme values may be limits of the assay
Procedure, shortened: (§1)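 For 72 h at 37 °C, MPNST cell lines and primary human Schwann cells were exposed in 384-well plates to five 10-fold compound dilutions. CellTox-Green, added before seeding at a final 1:1000 dilution, gave fluorescence from DNA released by disrupted cells. Signals were scaled to vehicle and positive-control wells, cultures failing plate quality control were left out, and four-parameter logistic fits were applied. Relative IC50 and drug sensitivity score were derived from the fits, with IC50 censored at the top concentration.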

[2] = tested on: HS-PSS; assay: as above
Procedure, shortened: as §1

[3] = tested on: HSC2 (primary human Schwann cells); assay: as above
Procedure, shortened: as §1

[4] = tested on: S1507-2; assay: as above
Procedure, shortened: as §1

[5] = tested on: ST8814; assay: as above
Procedure, shortened: as §1

[6] = tested on: STS26T; assay: as above
Procedure, shortened: as §1

[7] = tested on: HSC1 (primary human Schwann cells); assay: drug sensitivity score (DSS, CellTiter-Glo viability, 72 h) (DSS (dimensionless)); higher = more sensitive; extreme values may be limits of the assay
Procedure, shortened: (§2)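 After seeding 750–1000 cells per well of MPNST cell lines or primary human Schwann cells into 384-well plates preprinted with each compound at five concentrations in 10-fold steps, plates were kept 72 h at 37 °C, 5% CO2. Viability was read as CellTiter-Glo ATP luminescence relative to vehicle and positive-control wells, with duplicates averaged where present. The data were fitted with four-parameter logistic models. Drug sensitivity score and relative IC50, censored at the top concentration, derive from the fits, and percent inhibition refers to the top concentration.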

[8] = tested on: YST-1; assay: as above
Procedure, shortened: as §2

[9] = tested on: HS-PSS; assay: as above
Procedure, shortened: as §2

[10] = tested on: HS-Sch-2; assay: as above
Procedure, shortened: as §2

[11] = tested on: S462; assay: as above
Procedure, shortened: as §2

[12] = tested on: HSC2 (primary human Schwann cells); assay: as above
Procedure, shortened: as §2

[13] = tested on: S1507-2; assay: as above
Procedure, shortened: as §2

[14] = tested on: ST8814; assay: as above
Procedure, shortened: as §2

[15] = tested on: STS26T; assay: as above
Procedure, shortened: as §2

[16] = tested on: HSC1 (primary human Schwann cells); assay: % inhibition of CellTiter-Glo viability at highest tested concentration (72 h), relative to DMSO and benzethonium chloride controls; higher = more inhibition
Procedure, shortened: as §2

[17] = tested on: YST-1; assay: as above
Procedure, shortened: as §2

[18] = tested on: HS-PSS; assay: as above
Procedure, shortened: as §2

[19] = tested on: HS-Sch-2; assay: as above
Procedure, shortened: as §2

[20] = tested on: S462; assay: as above
Procedure, shortened: as §2

[21] = tested on: HSC2 (primary human Schwann cells); assay: as above
Procedure, shortened: as §2

[22] = tested on: S1507-2; assay: as above
Procedure, shortened: as §2

[23] = tested on: ST8814; assay: as above
Procedure, shortened: as §2

[24] = tested on: STS26T; assay: as above
Procedure, shortened: as §2

Structure (SMILES)	drug sensitivity score [1]	drug sensitivity score [2]	drug sensitivity score [3]	drug sensitivity score [4]	drug sensitivity score [5]	drug sensitivity score [6]	drug sensitivity score [7]	drug sensitivity score [8]	drug sensitivity score [9]	drug sensitivity score [10]	drug sensitivity score [11]	drug sensitivity score [12]	drug sensitivity score [13]	drug sensitivity score [14]	drug sensitivity score [15]	% inhibition [16] [%]	% inhibition [17] [%]	% inhibition [18] [%]	% inhibition [19] [%]	% inhibition [20] [%]	% inhibition [21] [%]	% inhibition [22] [%]	% inhibition [23] [%]	% inhibition [24] [%]
COc1cc2c(cc1O)CC[C@@H]1[C@@H]2CC[C@]2(C)[C@@H](O)CC[C@@H]12 [2-methoxyestradiol] (max concentration tested 10000 nM)	0.832	0	3.98	5.59 ± 1	5.07	11.6	7.26	6.88	1.11	10.8	12.8 ± 0.78	7.04	6.89 ± 0.4	6.11	12.1	66.2	75.8	26.6	84.4	98.15 ± 0.87	66.6	82 ± 3.8	91.9	99.8
COc1cc2ncnc(Nc3ccc(F)c(Cl)c3)c2cc1NC(=O)/C=C/CN1CCCCC1 [Dacomitinib] (max concentration tested 1000 nM)	0	1.85	0	1.18 ± 1.6	0	0	0.027	0	3	2.81	0.0398 ± 0.056	0.456	1.41 ± 1.5	0.993	0.0007	12.1	9.37	35.4	32.6	7.49 ± 5.3	19.3	24.7 ± 9.1	16.4	13.6
O=C1c2c(O)ccc(O)c2C(=O)c2c(NCCNCCO)ccc(NCCNCCO)c21 [Mitoxantrone] (max concentration tested 1000 nM)	0	0	0	0	1.65	1.34	2.89	10.7	1.94	4.38	5.57 ± 0.84	5.2	2.8 ± 1.2	2.63	2.45	37.8	77	28.8	42.7	72.66 ± 0.27	43	43.44 ± 0.12	46.7	53.5
Cc1[nH]c2ccccc2c1CCNCc1ccc(/C=C/C(=O)NO)cc1 [Panobinostat] (max concentration tested 1000 nM)	10.5	9.17	10.7	20.6 ± 0.84	16.1	11.1	19.5	23.7	14.1	19.1	22.7 ± 0.67	16.7	24.1 ± 0.61	22	16.8	101	99.9	93.9	101	103.7 ± 0.37	101	104.5 ± 0.79	101	98
C=CCNC1=C2C[C@@H](C)C[C@H](OC)[C@H](O)[C@@H](C)/C=C(\C)[C@H](OC(N)=O)[C@@H](OC)/C=C\C=C(/C)C(=O)NC(=CC1=O)C2=O [Tanespimycin] (max concentration tested 10000 nM)	17.9	5.08	19.1	14.6 ± 1.2	7.63	14	15.9	22.6	19	22.4	17.9 ± 1.3	16.7	20.8 ± 0.74	21	22.2	96.8	75.3	89.1	100	99.25 ± 0.39	98.2	98 ± 0.1	96.5	96.1
Cc1cn(-c2cc(NC(=O)c3ccc(C)c(Nc4nccc(-c5cccnc5)n4)c3)cc(C(F)(F)F)c2)cn1 [Nilotinib] (max concentration tested 10000 nM)	0	0	0.117	0	0	0	0	1.13	1.65	3.88	0	0	0	0	0	0.687	20.6	23.5	15.4	-3.63 ± 4.4	2.6	2.99 ± 0.13	-12.2	-1.55
CC(C)N(CCCNC(=O)Nc1ccc(C(C)(C)C)cc1)C[C@H]1O[C@@H](n2cc(Br)c3c(N)ncnc32)[C@H](O)[C@@H]1O [SGC0946] (max concentration tested 10000 nM)	0	2.32	0	0.24 ± 0.046	3.21	0	0.65	1.03	6.51	3.88	0.582 ± 0.82	0.163	3.16 ± 1.4	2.58	0	23.1	29	79.5	67.2	19.2 ± 8.9	16.3	42.7 ± 1.2	52.9	4.04
CS(=O)(=O)CCNCc1ccc(-c2ccc3ncnc(Nc4ccc(OCc5cccc(F)c5)c(Cl)c4)c3c2)o1 [Lapatinib] (max concentration tested 1000 nM)	0	0	0	0	0	0	0	0.63	0	0	0	0	0	0	0.0002	7.8	22.2	6.86	1.85	-5.81 ± 6.8	5.46	2.48 ± 6	-2.6	10.1
CO[C@@H](C(=O)N1Cc2[nH]nc(NC(=O)c3ccc(N4CCN(C)CC4)cc3)c2C1)c1ccccc1 [Danusertib] (max concentration tested 10000 nM)	6.43	2.75	7.05	1.16 ± 0.24	6.94	3.88	11.4	12.9	8.49	11.1	13.9 ± 0.31	10.4	8.76 ± 2	8.83	5.54	88.1	46.4	80.7	76.3	88.7 ± 1.7	90.9	66.7 ± 10	85.7	52.5
CN1CC[C@H](c2c(O)cc(O)c3c(=O)cc(-c4ccccc4Cl)oc23)[C@H](O)C1 [Alvocidib] (max concentration tested 10000 nM)	8.24	4.23	11.7	2.61 ± 3.7	4.45	10.1	18	20.5	20.4	20.6	21.1 ± 0.91	17.9	15.5 ± 0.93	17.8	20.1	85.4	97.8	83.7	101	99.41 ± 0.97	89.1	81.118 ± 0.0062	79.8	95.8
CC(C)C[C@@H](C(=O)N[C@H](C(=O)OC1CCCC1)c1ccccc1)[C@H](O)C(=O)NO [Tosedostat] (max concentration tested 10000 nM)	0	0	0	10.4 ± 9.7	2.29	28.6	9.82	4.41	0.92	11	8.03 ± 0.91	12.3	3.83 ± 0.36	2.24	18.2	50.1	28.4	25	64.9	55 ± 3.6	54.6	26.2 ± 6.2	28	74.9
Cc1ccc(NC(=O)c2ccc(CN3CCN(C)CC3)cc2)cc1Nc1nc(-c2cccnc2)cs1 [Masitinib] (max concentration tested 10000 nM)	2.96	1.06	0.804	4.73 ± 0.42	4.31	3.63	3.32	6.54	7.12	5.27	3.78 ± 0.14	3.5	7.556 ± 0.038	4.79	4.23	65.1	90.8	83.9	97.2	71.4 ± 5.9	54.6	96.25 ± 0.36	87.5	80.8
C[C@]12CC[C@@H]3c4ccc(O)cc4C[C@@H](CCCCCCCCC[S+]([O-])CCCC(F)(F)C(F)(F)F)[C@H]3[C@@H]1CC[C@@H]2O (some centres not stated) [Fulvestrant] (max concentration tested 1000 nM)	0	0	0	1.33 ± 1.9	0	0	0.178	0	0	0	0	0.538	0	0	0	11.4	1.11	10.3	8.02	6.51 ± 4.8	18.2	-11.9 ± 2.2	-2.59	4.69
